Data reported in patent publication US10702479B2, “Pharmaceutical formulation comprising sembragiline” (Hoffmann-La Roche Inc., priority 2015, dated 2020).
Values after ≈ are worked out from the molar mass of the structure shown. Like-named read-outs stand apart in the source and are kept apart here.

Assay: Solubility of Sembragiline in media at 37° C.
Format: physicochemical
Settings: for solubility at 4 h: read-out: Solubility of Sembragiline After 4 h

CC(=O)N[C@H]1CC(=O)N(c2ccc(OCc3cccc(F)c3)cc2)C1 [Sembragiline, N-[(3S)-1-[4-[(3-fluorophenyl)methoxy]phenyl]-5-oxo-pyrrolidin-3-yl]acetamide]
Dose Solubility Ratio (1 mg, Water): 25 | Dose Solubility Ratio (1 mg, pH 1, HCl 0.1N): 25 | Dose Solubility Ratio (1 mg, pH 4.5, 50 mM acetate buffer): 25 | Dose Solubility Ratio (1 mg, pH 6.8, 50 mM phosphate buffer): 25 | Dose Solubility Ratio (1 mg, pH 7.5, 50 mM phosphate buffer): 25 | Dose Solubility Ratio (5 mg, Water): 125 | Dose Solubility Ratio (5 mg, pH 1, HCl 0.1N): 125 | Dose Solubility Ratio (5 mg, pH 4.5, 50 mM acetate buffer): 125 | Dose Solubility Ratio (5 mg, pH 6.8, 50 mM phosphate buffer): 125 | Dose Solubility Ratio (5 mg, pH 7.5, 50 mM phosphate buffer): 125 | solubility at 4 h (0.1 N HCl, simulated gastric fluid, pH 1, HCl 0.1N): 40 µg/mL (≈ 117 µM) | Solubility of Sembragiline 250 mL (Water): 10 mg | solubility at 4 h (Water): 40 µg/mL (≈ 117 µM) | solubility at 4 h (aqueous buffer, pH 4.5, 50 mM acetate buffer): 40 µg/mL (≈ 117 µM) | solubility at 4 h (aqueous buffer, pH 6.8, 50 mM phosphate buffer): 40 µg/mL (≈ 117 µM) | solubility at 4 h (aqueous buffer, pH 7.5, 50 mM phosphate buffer): 40 µg/mL (≈ 117 µM) | Solubility of Sembragiline 250 mL (pH 1, HCl 0.1N): 10 mg | Solubility of Sembragiline 250 mL (pH 4.5, 50 mM acetate buffer): 10 mg | Solubility of Sembragiline 250 mL (pH 6.8, 50 mM phosphate buffer): 10 mg | Solubility of Sembragiline 250 mL (pH 7.5, 50 mM phosphate buffer): 10 mg
